Data from PubChem BioAssay AID651703 (Broad Institute, 2012).

The compounds below were run against Transforming acidic coiled-coil-containing protein 3 (Homo sapiens) (UniProt Q9Y6A5) (assay: inhibition of ARNT PAS-B/TACC3 complex formation – biochemical, AlphaScreen, cherry-picked samples, confirmation (AID 651703;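 note: TACC3 partner is the GST-tagged E629A mutant dimer; hits lower the signal meaning they disrupt ARNT binding to TACC3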)). Settings: AlphaScreen His-ARNT PAS-B / GST-TACC3 binding, luminescence.

Row | Compound | AC50 [µM]
1 | CCCCC(=O)NC(c1cccc([N+](=O)[O-])c1)c1ccc2cccnc2c1O (stereo unspecified) | 4.22
2 | CC(C)(C)CCNC(=O)c1cc(-c2ccccc2)on1 | 21.5
3 | CC(=O)c1cccc(NC(=O)CSc2ccc(-c3ccccn3)nn2)c1 | 3.21
4 | Cc1cccc(NC(=O)CSc2cccc3cccnc23)c1C | 33.7
5 | O=S1(=O)N=C(N/N=C/c2ccccn2)c2ccccc21 | 4.02
6 | COc1ccccc1NC(=O)CSc1n[nH]c(-c2ccccn2)n1 | 0.821
7 | O=C(CN1C(=O)C2C3C=CC(C3)C2C1=O)Nc1nc(-c2ccccn2)cs1 (stereo unspecified) | 6.76
8 | COc1cc2c(c(OC)c1OC)-c1ccc(O)c(=O)cc1[C@@H](N)CC2 | 29.7
9 | O=C(COC(=O)c1ccc(O)cc1O)Nc1nnc(-c2ccccc2)o1 | 13.7
10 | Clc1cccc(-c2ccc(CNCc3ccccn3)o2)c1 | 21.2
11 | CC(C)(C)C(=O)Nc1ccccc1C(=O)NCCCn1ccnc1 | 17.4
12 | Cc1ccc(CNc2nc(-c3ccccn3)nnc2-c2ccccc2)cc1C | 0.558
13 | CCCC(=O)NC(c1ccccc1)c1ccc2cccnc2c1O (stereo unspecified) | 4.6
14 | O=C(N[C@@H]1CC[C@H](CCn2cc(-c3ccccn3)nn2)O[C@H]1CO)c1ccccc1 | 27.6
15 | CCC1CCCCN1S(=O)(=O)c1ccc(NC(=O)CSc2ncccc2C(=O)O)cc1 (stereo unspecified) | 15.4
16 | COc1ccc(NC(=O)CSc2ccc3nnc(-c4ccccn4)n3n2)cc1 | 26.2
17 | CCOc1ccc(N(CC(=O)Nc2ccc(OC)cc2OC)S(=O)(=O)c2c(C)[nH]c(=O)[nH]c2=O)cc1 | 27.6
18 | O=C(NNc1ccccn1)C(=O)NNS(=O)(=O)c1ccc(F)cc1 | 15.5
19 | CCc1ccc2c(c1)C1(NN=C(c3ccc(C)cc3)S1)C(=O)N2 (stereo unspecified) | 1.52

Row | Compound | AC50 [µM]
20 | O=C(NCCCn1ccnc1)Nc1ccc(Cl)c(Cl)c1 | 25.2
21 | CCOc1cc(/C=C2\SC(=N)N(c3nccs3)C2=O)ccc1OCCN1CCOCC1 | 35
22 | c1ccc(CNCCN2CCNCC2)nc1 | 6.79
23 | Cc1ccccc1Nc1nnc(SCC(=O)NC(=O)NCc2ccco2)s1 | 71.2
24 | Oc1ccc(Br)cc1/C=N/Nc1ccccn1 | 3.27
25 | Cc1sc2ncnc(N/N=C/c3ccccc3O)c2c1C | 10.1
26 | O=C(N/N=C/c1cc(Br)ccc1O)C(c1ccncc1)N1CCOCC1 (stereo unspecified) | 13.4
27 | Cc1cccc(NC(=O)CCC(=O)N/N=C/c2ccc(O)cc2O)c1 | 22.4
28 | Cc1cc(C)c(NC(=O)CSc2nnc(-c3ccccn3)n2N)c(Cl)c1 | 37.1
29 | O=C(NC[C@@H]1[C@H](c2ccccc2)[C@H](CO)N1Cc1ccccn1)C1CCCC1 | 40.7
30 | Cc1cccnc1Nc1nc(-c2ccccn2)cs1 | 0.756
31 | O=C(N[C@@H]1CC[C@@H](CCn2cc(-c3ccccn3)nn2)O[C@H]1CO)c1ccc(F)cc1 | 10.2
32 | O=C(CSc1ccc2nnc(-c3ccccn3)n2n1)NCc1ccco1 | 9.49
33 | NC1=NN=C(N2N=C(c3ccco3)CC2(O)C(F)(F)F)n2ncnc2C1 (stereo unspecified) | 12
34 | N#Cc1ccc(OCC(=O)NCCCn2ccnc2)cc1 | 8.65
35 | O=C(COc1nsnc1N1CCOCC1)N/N=C/c1ccccc1O | 34.9
36 | c1ccc(-c2cn3c(n2)CCc2ccc4cccnc4c2-3)cc1 | 21.2
37 | C[C@H](NC(=O)c1ccco1)C(=O)Nc1nc(-c2ccccn2)cs1 | 8.23
38 | COc1ccc2nc(-c3ccccn3)[nH]c2c1 | 29

Row | Compound | AC50 [µM]
39 | COc1cc(OC)c(C(=O)OCC(=O)Nc2nnc(-c3ccccc3)o2)cc1OC | 19
40 | N[C@@H]1CC[C@H](CCn2cc(-c3ccccn3)nn2)O[C@H]1CO | 1.13
41 | Cc1ccc(S(=O)(=O)N2CCOCC2)cc1NC(=O)CNCc1ccccn1 | 6.07
42 | C[C@@H]1CN([C@@H](C)CO)C(=O)Cc2cc(NC(=O)Nc3cccc4ccccc34)ccc2O[C@H]1CN(C)Cc1ccc(Oc2ccccc2)cc1 | 18.4
43 | O=C(N[C@H]1CC[C@H](CCn2cc(-c3ccccn3)nn2)O[C@@H]1CO)c1ccccc1 | 13
44 | CO[C@@H]1CN(C)C(=O)c2ccc(NC(=O)c3ccccn3)cc2OC[C@@H](C)N(Cc2ccccn2)C[C@H]1C | 7.1
45 | N/C(=N\OC(=O)Cc1ccc([N+](=O)[O-])cc1)c1ccccn1 | 21.5
46 | CCCCCC/C=N/Nc1nnc(Cc2ccc(OC)c(OC)c2)c(=O)[nH]1 | 25.1
47 | c1ccc(-c2n[nH]c(-c3ccccn3)n2)cc1 | 11.6
48 | O=c1[nH]c(-c2ccccn2)nc2ccccc12 | 7.86
49 | Cc1nc2ccccc2c(=O)n1/N=C/c1ccc(O)c(O)c1O | 25.9
50 | c1ccc(-c2nnc(-c3ccccn3)nc2NCC2CCOCC2)cc1 | < 0.5
51 | COc1cccc(C(=O)Oc2c(CN3CCOCC3)cc(Cl)c3cccnc23)c1 | 10.9
52 | O=C(CSc1ccc(-c2ccccn2)nn1)N1CCCc2ccccc21 | 5.32
53 | c1ccc(-c2nnc(-c3ccccn3)nc2NCCCN2CCOCC2)cc1 | < 0.5
54 | c1ccc(CNc2nc(-c3ccccn3)nnc2-c2ccccc2)cc1 | < 0.5
55 | CNc1ccc2nc3ccccc3[n+](C)c2c1 | 29.9
56 | Cc1ccn2c(Nc3ccccc3C)c(-c3ccccn3)nc2c1 | 3.69
